Measured values published in US10502742B2, “Flourescent exomarker probes for hydrogen sulfide detection” (AMRITA VISHWA VIDYAPEETHAM, priority 2017, dated 2019).

Experiments:
[1] = Detection of H2S in blood serum by fluorescence spectroscopy; conditions: fetal bovine serum (0.45 mM albumin protein), 37° C.; ex 380 nm, em 450 nm
Description: Fluorescence spectroscopy was performed for Mito-HS in fetal bovine serum at 37° C. Excitation and emission wavelengths were set at 380 nm and 450 nm respectively and slit widths at 3 nm.

[2] = system: 3T3-L1 cells; experiment: Fluorescence microscopy of endogenous H2S in cells; format: cell-based; conditions: 3T3-L1 normal cells, similar conditions, even after an hour
Description: (§1) Human cervical cancer cells (HeLa), breast cancer cells (MDA-MB-231), prostate cancer cells (DU 145) and 3T3-L1 fibroblast cells were cultured in DMEM high glucose media supplemented with 10% fetal bovine serum, 1% Penstrep, 0.2% Amphotericin B. The cells were grown overnight at 37° C. incubator with 5% CO2. HeLa, MDA-MB-231, DU 145, and 3T3-L1 cells were seeded at a density of 0.3×10^6 cells in 35 mm dish and kept overnight. The probe Mito-HS prepared in Example 1 was dissolved in 0.2% DMSO to make a stock concentration of 10 mM. The cells were treated with 5 μM of Mito-HS for 15 min. 300-550 nm excitation light was used to measure its fluorescence properties. Images were acquired using Zeiss Fluorescence Microscope (A1 Axiovert) with ×40 objective lens.
(§2) Fluorescence microscopic study was performed for Mito-HS treated and untreated cancer cells (HeLa, MDA-MB-231 and DU145 cells) and normal cell (3T3-L1 cells) by illuminating lights of 390 nm as excitation wavelength and monitoring the emission over 440-500 nm range. […] In contrast, Mito-HS pretreated normal cells were remained non-fluorescent under similar conditions even after an hour. The insufficient production of H2S in 3T3-L1 cells was responsible for their non-fluorescent images.

[3] = Fluorescence response of Mito-HS to variable concentrations of Na2S (H2S) in PBS
Description: UV-Vis and fluorescence spectroscopy was studied and changes of Mito-HS was recorded in variable concentrations of Na2S (0-200 μM) in PBS buffer solution containing 0.2% of DMSO at physiological pH (pH 7.4) to study the performance of the probe in H2S (Na2S) environment as shown in FIG. 3A-C. In FIG. 3A, the UV-Vis absorption band at λab 370 nm gradually decreases with the appearance of a new absorption band at λab 395 nm in the presence of variable concentrations of H2S.

[4] = system: DU145 cells; experiment: Fluorescence microscopy of endogenous H2S in cells; format: cell-based, Human
Description: as §1, §2
(§3) To assure that the fluorescence image of the Mito-HS treated cells were solely due to production of endogenous H2S instead of any other endogenous thiol-like entities such as GSH, cysteine and homocysteine, HeLa, MDA-MB-231 and DU145 cells were pretreated with a thiol-masking agent, here N-ethyl maleimide (NEM).

[5] = system: HeLa cells; experiment: Fluorescence microscopy of endogenous H2S in cells; format: cell-based, Human
Description: as §1, §2, §3

[6] = system: MDA-MB-231 cells; experiment: Fluorescence microscopy of endogenous H2S in cells; format: cell-based, Human
Description: as §1, §2, §3

[7] = Physiological pH stability study by fluorescence spectrometry; format: physicochemical
Text: The stability and reactivity of Mito-HS toward H2S in various physiological pH was studied in fluorescence spectrometry as shown in FIG. 6.

[8] = Selectivity: fluorescence responses in the presence of biologically important analytes; conditions: Mito-HS 5 μM; PBS, 0.2% DMSO, pH 7.4, 37° C.; excitation 380 nm
Description: Fluorescence responses of Mito-HS (5 μM) in the presence of various biologically important analytes such as H2S, cysteine (Cys), H2O2, NaNO2, Cu(OAc)2, Zn(OAc)2, FeSO4, FeCl3, Na2CO3, GSH, and ascorbic acid (AA) NO, Na2S2O4 in aqueous solutions (in PBS, 0.2% DMSO, pH=7.4) at 37° C. were studied as shown in FIG. 5. Excitation wavelength was set at 380 nm and excitation and emission slit widths both set at 3 nm. Error bars were obtained from triplet experimental data. […] So, the experiment supported the proposed concept of using Mito-HS to track cellular H2S over other competing substances such as thiols.

[9] = Time-dependent fluorescence of Mito-HS in the presence of H2S; conditions: H2S (20.0 eq.)
Description: The environment of biological entities in cellular milieu is temporal, henceforth, the response time of probe for an analyte is crucial. Thus, time-dependent fluorescence data at λmax 450 nm were recorded in the presence of H2S (20.0 eq.). […] The rate of reaction of Mito-HS with H2S was calculated to be 5.4×10^−3 s^−1.

[10] = Determination of fluorescence quantum yield; format: physicochemical; conditions: PBS 10 mM, pH 7.4, quinine standard
Description: The fluorescence quantum yield of Mito-HS was determined in the presence and absence of H2S in PBS buffer solution of 10 mM concentration and in the physiological pH of 7.4 taking quinine (ΦX=0.542) as standard. The fluorescence quantum yield was calculated by the equation: ΦS=ΦX (ASFS/AXFX), where, AS and AX are the absorbance of the sample and the reference, respectively; at the same excitation wavelength, FS and FX are the corresponding relative integrated fluorescence intensities. The quantum yield for Mito-HS calculated to be 0.045 was increased to 0.479 due to formation of FL-1 in the presence of H2S.

[11] = system: DU145 cells; experiment: In vitro cytotoxicity, MTT assay; format: cell-based, Human; conditions: 48 h incubation
Description: as §1
(§4) Prior to the application of probe in vitro, cytotoxicity study was performed to check its biocompatibility. HeLa, MDA-MB-231 and DU145 cells were considered to assess the cytotoxicity of Mito-HS by conventional MTT assay. The cells were treated with Mito-HS and incubated for 48 h.

[12] = system: HeLa cells; experiment: In vitro cytotoxicity, MTT assay; format: cell-based, Human; conditions: 48 h incubation
Description: as §1, §4

[13] = system: MDA-MB-231 cells; experiment: In vitro cytotoxicity, MTT assay; format: cell-based, Human; conditions: MDA-MB-231, MTT, 48 h incubation
Description: as §1, §4

[14] = system: mitochondria of MDA MB 231 cells; experiment: Co-localization experiment with MitoSox Red; format: cell-based, Human
Description: (§5) In order to evaluate the mito-targeting nature of Triphenylphosphonium ion of Mito-HS, a co-localization experiment was carried out with MitoSox Red, which is a mitochondria targeting dye, to make a comparison study.

[15] = system: mitochondria of DU145 cells; experiment: Co-localization experiment with MitoSox Red; format: cell-based, Human
Description: as §5

[16] = system: mitochondria of HeLa cells; experiment: Co-localization experiment with MitoSox Red; format: cell-based, Human
Description: as §5

[17] = reference standard value; cited from earlier work

[N-]=[N+]=Nc1ccc2cc(C(=O)NCC[P+](c3ccccc3)(c3ccccc3)c3ccccc3)c(=O)oc2c1 [Mito-HS]
increase of fluorescence intensity in blood serum [1]: 30 fold | cell fluorescence image [2]: non-fluorescent | H2S concentration at fluorescence saturation point ([3]; H2S 0-200 μM added, λmax 450 nm): 200 µM | fluorescence intensity increase in the presence of H2S ([3]; H2S 200 μM, λmax 450 nm, PBS pH 7.4, 0.2% DMSO): ~43 fold | H2S concentration range detectable (physiological condition) ([3]; PBS pH 7.4, 0.2% DMSO): 10-600 μM | lower detection limit for H2S ([3]; calculated by applying regression equation): 24.3 nM | cell fluorescence image ([4]; DU145, Mito-HS 5.0 μM, ex 390 nm, em 440-500 nm): strong fluorescence | cell fluorescence after pretreatment with thiol-masking agent NEM ([4]; DU145, NEM pretreated): equally fluorescent labeled | cell fluorescence image ([5]; Mito-HS 5.0 μM, ex 390 nm, em 440-500 nm): strong fluorescence | cell fluorescence after pretreatment with thiol-masking agent NEM ([5]; NEM pretreated vs NEM untreated): equally fluorescent labeled | cell fluorescence image ([6]; MDA-MB-231, Mito-HS 5.0 μM, ex 390 nm, em 440-500 nm): strong fluorescence | cell fluorescence after pretreatment with thiol-masking agent NEM ([6]; MDA-MB-231, NEM pretreated): equally fluorescent labeled | fluorescence intensity toward H2S at various pH ([7]; in H2S environment, pH 4-9): high fluorescence intensity was observed in H2S environment with sharp depreciation in lower pH range | pH range in which stable ([7]; in absence of H2S, fluorescence spectrometry): 4-9 | fluorescence change with analytes other than H2S [8]: none of the analytes showed considerable fluorescence change other than H2S | rate of reaction of Mito-HS with H2S ([9]; fluorescence at λmax 450 nm): 0.0054 s⁻¹ | time at which fluorescence intensity plateaued ([9]; λmax 450 nm): > 40 min | fluorescence quantum yield ([10]; absence of H2S): 0.045 | fluorescence quantum yield ([10]; presence of H2S (formation of FL-1)): 0.479 | cytotoxicity (cell viability) [11]: did not show cytotoxic behavior | cytotoxicity (cell viability) [12]: did not show cytotoxic behavior | cytotoxicity (cell viability) [13]: did not show cytotoxic behavior | subcellular localization [14]: predominantly in mitochondria | subcellular localization [15]: predominantly in mitochondria | subcellular localization [16]: predominantly in mitochondria

C=C[C@H]1C[N@@]2CC[C@H]1C[C@H]2[C@H](O)c1ccnc2ccc(OC)cc12 [quinine]
fluorescence quantum yield of standard (ΦX) [17]: 0.542
